Read-outs that look alike come from different tables or passages of the source.
Assays:
MATE1 [1] = molecular target: T1, MATE1 (Homo sapiens, UniProt Q96FL8); experiment: Uptake ratio in MATE1-overexpressing HEK293 cells vs empty vector (2.5 μM, 1 min, HPLC-MS/MS); type: cell-based; design: key to MATE1 substrate*: 1 = substrate; 0 = no substrate; details: for MATE1 substrate*: Table S4; for MATE1: uptake ratio MATE1-overexpressing vs empty-vector HEK293 cells, mean
T1 sequence (Q96FL8 1-570): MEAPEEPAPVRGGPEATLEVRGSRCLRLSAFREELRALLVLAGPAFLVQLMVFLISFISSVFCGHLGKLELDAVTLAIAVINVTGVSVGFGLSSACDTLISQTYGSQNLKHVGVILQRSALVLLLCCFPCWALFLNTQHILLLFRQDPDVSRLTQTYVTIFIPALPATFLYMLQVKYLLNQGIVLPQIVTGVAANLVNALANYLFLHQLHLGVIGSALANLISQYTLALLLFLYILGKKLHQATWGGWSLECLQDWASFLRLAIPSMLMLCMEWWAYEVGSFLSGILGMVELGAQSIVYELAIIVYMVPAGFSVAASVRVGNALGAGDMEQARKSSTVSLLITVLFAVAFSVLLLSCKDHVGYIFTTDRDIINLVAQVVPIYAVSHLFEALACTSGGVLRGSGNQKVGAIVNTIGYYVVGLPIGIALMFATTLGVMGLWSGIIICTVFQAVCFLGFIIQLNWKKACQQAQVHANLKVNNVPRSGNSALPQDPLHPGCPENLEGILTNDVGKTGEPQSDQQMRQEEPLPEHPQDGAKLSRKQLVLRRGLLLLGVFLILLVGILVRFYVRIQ

[2] = human; cited from earlier work
renal MATE1 = details: 800 mg cimetidine; cited from earlier work
MATE2K [3] = molecular target: T2, MATE2K (Homo sapiens, UniProt Q86VL8); experiment: Uptake ratio in MATE2K-overexpressing HEK293 cells vs empty vector (2.5 μM, 1 min, HPLC-MS/MS); type: cell-based; design: key to MATE2 substrate*: 1 = substrate; 0 = no substrate; details: for MATE2 substrate*: Table S4; for MATE2: uptake ratio MATE2K-overexpressing vs empty-vector HEK293 cells, mean
MATE1 [4] = molecular target: T1, MATE1; experiment: in vitro; details: other cell line, pH 7.4
MATE2K [5] = molecular target: T2, MATE2K; experiment: in vitro; details: other cell line, pH 7.4
MATE2K [6] = molecular target: T2, MATE2K; experiment: Concentration-dependent uptake (Michaelis-Menten) via MATE2K in HEK293 cells; details: HEK293, 1 min, net uptake; for Km: read-out: MATE2K KM
MATE1 [7] = molecular target: T1, MATE1; details: for MATE1 Clint: human, pH 7.4
MATE1 [8] = molecular target: T1, MATE1; experiment: Concentration-dependent uptake (Michaelis-Menten) via MATE1 in HEK293 cells
[9] = test system: MATE1, MATE2K, OCT1, OCT2; experiment: Substrate specificity and overlap among the four transporters (ratio cutoff 2); type: cell-based, human; details: transport ratio cutoff of 2
OCT1 = molecular target: T3, OCT1 (Homo sapiens, UniProt O15245); experiment: Uptake in OCT1-overexpressing HEK293 cells (substrate yes/no); type: cell-based; design: key: 1 = substrate; 0 = no substrate; details: Table S4
T3 sequence (O15245 1-554): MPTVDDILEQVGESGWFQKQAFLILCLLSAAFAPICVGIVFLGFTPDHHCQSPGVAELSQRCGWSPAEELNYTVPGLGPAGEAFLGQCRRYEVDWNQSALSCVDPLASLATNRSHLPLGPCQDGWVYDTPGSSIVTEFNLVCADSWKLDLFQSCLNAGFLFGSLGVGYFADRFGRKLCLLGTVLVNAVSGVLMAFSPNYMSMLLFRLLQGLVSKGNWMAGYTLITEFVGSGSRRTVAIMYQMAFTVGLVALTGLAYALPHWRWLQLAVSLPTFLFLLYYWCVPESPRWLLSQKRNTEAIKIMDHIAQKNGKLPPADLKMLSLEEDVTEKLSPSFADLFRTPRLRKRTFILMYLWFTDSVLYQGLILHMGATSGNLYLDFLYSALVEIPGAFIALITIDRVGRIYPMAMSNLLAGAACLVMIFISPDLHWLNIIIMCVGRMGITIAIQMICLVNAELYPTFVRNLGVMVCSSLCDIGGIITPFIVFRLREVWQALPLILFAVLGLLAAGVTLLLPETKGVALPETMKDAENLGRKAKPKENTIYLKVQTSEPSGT
Protocol: (§1) The cell lines were generated using the recombinant site-specific Flp-In^TM system as previously described. , All cell lines used in the transport experiments were cultured at 37 °C and 5% CO2 with Dulbecco’s Modified Eagle’s Medium (DMEM) supplemented with 10% (v/v) FBS and the antibiotics penicillin (100 U/mL) and streptomycin (100 μg/mL).

OCT2 = molecular target: T4, OCT2 (Homo sapiens, UniProt O15244); experiment: Uptake in OCT2-overexpressing HEK293 cells (substrate yes/no); type: cell-based; design: key: 1 = substrate; 0 = no substrate; details: Table S4
T4 sequence (O15244 1-555): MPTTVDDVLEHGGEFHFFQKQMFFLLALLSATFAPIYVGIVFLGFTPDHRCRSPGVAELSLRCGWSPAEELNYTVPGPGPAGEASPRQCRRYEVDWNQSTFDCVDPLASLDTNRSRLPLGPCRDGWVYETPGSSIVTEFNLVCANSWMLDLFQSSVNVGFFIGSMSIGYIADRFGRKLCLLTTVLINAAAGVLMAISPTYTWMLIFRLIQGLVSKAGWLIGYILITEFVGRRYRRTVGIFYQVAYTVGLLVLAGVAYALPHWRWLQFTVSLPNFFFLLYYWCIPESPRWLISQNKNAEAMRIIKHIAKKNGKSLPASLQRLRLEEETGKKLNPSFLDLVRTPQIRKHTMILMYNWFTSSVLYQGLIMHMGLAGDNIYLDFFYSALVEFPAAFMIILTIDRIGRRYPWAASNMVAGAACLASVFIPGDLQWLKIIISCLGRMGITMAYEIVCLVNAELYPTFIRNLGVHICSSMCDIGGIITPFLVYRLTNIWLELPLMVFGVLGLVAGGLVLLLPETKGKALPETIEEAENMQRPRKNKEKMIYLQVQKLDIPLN
Protocol: as §1

[10] = fold uptake over empty vector, 2.5 μM, 1 min

T2 sequence (Q86VL8 1-566 isoform Q86VL8-3): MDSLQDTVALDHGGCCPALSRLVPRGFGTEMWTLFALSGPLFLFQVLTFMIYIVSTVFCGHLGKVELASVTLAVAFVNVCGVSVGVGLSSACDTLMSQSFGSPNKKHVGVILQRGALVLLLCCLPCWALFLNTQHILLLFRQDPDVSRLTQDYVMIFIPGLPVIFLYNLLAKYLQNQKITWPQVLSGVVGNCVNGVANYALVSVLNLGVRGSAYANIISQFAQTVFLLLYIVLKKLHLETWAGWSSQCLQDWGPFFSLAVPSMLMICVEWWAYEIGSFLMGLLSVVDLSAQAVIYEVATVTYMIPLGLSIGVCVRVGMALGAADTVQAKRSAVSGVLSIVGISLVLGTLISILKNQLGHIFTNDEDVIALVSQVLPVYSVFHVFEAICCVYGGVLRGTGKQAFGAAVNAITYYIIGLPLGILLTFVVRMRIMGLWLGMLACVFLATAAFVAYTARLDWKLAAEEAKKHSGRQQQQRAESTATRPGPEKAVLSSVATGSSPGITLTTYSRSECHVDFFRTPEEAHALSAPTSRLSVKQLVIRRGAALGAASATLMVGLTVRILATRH

CN/C(=N\CCSCc1nc[nH]c1C)NC#N [Cimetidine]
MATE1 ratio in this study (MATE1 [1]; Table S1, 2.5 μM, 1 min): 11.52 | MATE1 ratio (MATE1 [1]; [10]): 11.52 | MATE1 ratio (MATE1 [1]; fold uptake over empty vector, 2.5 μM, 1 min, listed as cimetidine): above 2 | MATE1 (uptake ratio) (MATE1 [1]; mean ratio of uptake in MATE1-overexpressing HEK293 cells vs empty vector, 2.5 μM, 1 min): 11.52 | eliminated unchanged via the kidneys [2]: more than 70% | inhibition of metformin elimination (renal MATE1): approximately 43% | MATE2K ratio in this study (MATE2K [3]; Table S1, 2.5 μM, 1 min): 3.60 | MATE2K ratio (MATE2K [3]; [10]): 3.60 | MATE2 (uptake ratio) (MATE2K [3]; mean ratio of uptake in MATE2K-overexpressing HEK293 cells vs empty vector, 2.5 μM, 1 min): 3.6

c1c2c(cc3c1OCO3)-c1cc3ccc4c(c3c[n+]1CC2)OCO4 [Coptisine]
microsomal CLint (MATE1 [4]): 145 µL/min/mg | microsomal CLint (MATE2K [5]): 131 µL/min/mg | MATE1 ratio (MATE1 [1]): 9.90 | MATE2K Vmax (MATE2K [6]): 246 pmol × mg protein^–1 × min^–1 | Km (MATE2K [6]): 1.88 µM | Km (MATE1 [7]): 20 µM | MATE1 Clint (MATE1 [7]): 145 μL × mg protein^–1 × min^–1 | MATE1 Vmax (MATE1 [8]): 2901 pmol × mg protein^–1 × min^–1 | MATE2K ratio (MATE2K [3]): 6.48

CN(C)C(=O)Oc1cccc([N+](C)(C)C)c1 [Neostigmine]
Substrate specificity among MATE1, MATE2K, OCT1, OCT2 [9]: All four transporters | MATE1 ratio (MATE1 [1]): 32.31 | MATE2K Vmax (MATE2K [6]): 3139 pmol × mg protein^–1 × min^–1 | Km (MATE2K [6]): 385 µM | Km (MATE1 [7]): 160 µM | MATE1 Clint (MATE1 [7]): 45.2 μL × mg protein^–1 × min^–1 | MATE1 Vmax (MATE1 [8]): 7255 pmol × mg protein^–1 × min^–1 | MATE2K ratio (MATE2K [3]): 5.31

O=C1Cc2cc(CCN3CCN(c4nsc5ccccc45)CC3)c(Cl)cc2N1 [Ziprasidone]
MATE1 substrate* (MATE1 [1]): 0 | MATE1 (MATE1 [1]; 2.5 μM, 1 min): 1.2 | OCT1 substrate* (OCT1): 0 | OCT2 substrate* (OCT2): 0 | MATE2 substrate* (MATE2K [3]): 0 | MATE2 (MATE2K [3]; 2.5 μM, 1 min): 1.25

CN(C)CCc1c[nH]c2ccc(C[C@H]3COC(=O)N3)cc12 [Zolmitriptan (R), Zolmitriptan]
MATE1 substrate* (MATE1 [1]): 1 | MATE1 (MATE1 [1]; 2.5 μM, 1 min): 12.88 | OCT1 substrate* (OCT1): 1 | MATE1 Vmax (MATE1 [8]; HEK293, 1 min, net uptake): 2624 pmol × mg protein^–1 × min^–1 | OCT2 substrate* (OCT2): 1 | MATE2 substrate* (MATE2K [3]): 1 | MATE2 (MATE2K [3]; 2.5 μM, 1 min): 6.48

CN(C)CCc1c[nH]c2ccc(C[C@H]3COC(=O)N3)cc12 [Zolmitriptan (S), Zolmitriptan]
MATE1 substrate* (MATE1 [1]): 1 | MATE1 (MATE1 [1]; 2.5 μM, 1 min): 13.34 | MATE2K Vmax (MATE2K [6]): 1662 pmol × mg protein^–1 × min^–1 | Km (MATE2K [6]): 94.5 µM | OCT1 substrate* (OCT1): 1 | MATE1 Vmax (MATE1 [8]; HEK293, 1 min, net uptake): 2849 pmol × mg protein^–1 × min^–1 | OCT2 substrate* (OCT2): 0 | MATE2 substrate* (MATE2K [3]): 1 | MATE2 (MATE2K [3]; 2.5 μM, 1 min): 5.38

CN(C)CCc1c[nH]c2ccc(C[C@H]3COC(=O)N3)cc12 [Zolmitriptan]
MATE1 substrate* (MATE1 [1]): 1 | MATE1 (MATE1 [1]; 2.5 μM, 1 min): 11.83 | OCT1 substrate* (OCT1): 1 | MATE1 Vmax (MATE1 [8]; HEK293, 1 min, net uptake): 2992 pmol × mg protein^–1 × min^–1 | OCT2 substrate* (OCT2): 0 | MATE2 substrate* (MATE2K [3]): 1 | MATE2 (MATE2K [3]; 2.5 μM, 1 min): 5.51

CN(C)CCOC1=Cc2ccccc2Sc2ccc(Cl)cc21 [Zotepin]
MATE1 substrate* (MATE1 [1]): 0 | MATE1 (MATE1 [1]; 2.5 μM, 1 min): 0.51 | OCT1 substrate* (OCT1): 0 | MATE2 substrate* (MATE2K [3]): 0 | MATE2 (MATE2K [3]; 2.5 μM, 1 min): 1.34
